Data from publication PMC6982741, “Design, Synthesis and Study of Nitrogen Monoxide Donors as Potent Hypolipidaemic and Anti-Inflammatory Agents” (Molecules, 2019).
Where two headings read alike, the source gives them in different places. Marks after values point to notes of the source that are not given here.

Assays:
soybean lipoxygenase 1-B = target: T1, soybean lipoxygenase 1-B (Glycine max, UniProt P08170); test: In vitro soybean lipoxygenase inhibition, linoleate as substrate; assay type: biochemical; settings: sodium linoleate 100 μM; after 7 min of incubation; pH 9.0, 28 °C
T1 construct: purchased Sigma (St. Louis, MO, U.S.A.)
T1 sequence (P08170 1-839): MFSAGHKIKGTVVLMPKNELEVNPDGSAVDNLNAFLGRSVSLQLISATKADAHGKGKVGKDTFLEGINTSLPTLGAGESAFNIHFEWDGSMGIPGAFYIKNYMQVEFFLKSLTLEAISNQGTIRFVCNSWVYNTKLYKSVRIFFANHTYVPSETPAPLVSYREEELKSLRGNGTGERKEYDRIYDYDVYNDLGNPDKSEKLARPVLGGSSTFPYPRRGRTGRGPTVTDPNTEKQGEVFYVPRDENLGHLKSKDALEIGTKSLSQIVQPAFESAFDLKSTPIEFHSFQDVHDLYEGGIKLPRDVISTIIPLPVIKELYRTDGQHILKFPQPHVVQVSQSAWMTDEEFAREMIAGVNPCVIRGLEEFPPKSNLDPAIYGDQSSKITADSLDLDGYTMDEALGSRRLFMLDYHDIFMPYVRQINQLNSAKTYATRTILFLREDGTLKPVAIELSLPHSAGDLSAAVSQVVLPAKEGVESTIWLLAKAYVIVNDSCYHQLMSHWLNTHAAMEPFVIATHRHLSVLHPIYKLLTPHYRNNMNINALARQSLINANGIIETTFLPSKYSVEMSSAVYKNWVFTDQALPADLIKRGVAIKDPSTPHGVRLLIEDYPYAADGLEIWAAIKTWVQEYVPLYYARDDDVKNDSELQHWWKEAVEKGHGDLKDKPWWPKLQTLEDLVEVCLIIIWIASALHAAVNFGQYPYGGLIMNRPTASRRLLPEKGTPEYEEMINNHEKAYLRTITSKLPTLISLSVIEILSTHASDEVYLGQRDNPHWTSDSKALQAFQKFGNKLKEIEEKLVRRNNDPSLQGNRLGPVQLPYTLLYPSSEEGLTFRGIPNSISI
Method: The reaction mixture contained the examined compounds (in absolute ethanol, 1–300 μM), soybean lipoxygenase (in saline, 250 u/mL) and sodium linoleate (100 μM), in Tris–HCl buffer, pH 9.0. The reaction was monitored for 7 min at 28 °C, recording the absorbance at 234 nm. […]

[1] = Interaction with the stable radical DPPH; settings: DPPH 200 μΜ, after 30 min
Method: (§1) The antioxidant activity of compounds was estimated by the inhibition of rat hepatic microsomal membrane lipid peroxidation, induced by Fe^+2/ascorbate, estimated as 2-thiobarbituric acid (TBA) reactive material, and by their interaction with the N-centred 1,1-diphenyl-2-picrylhydrazyl (DPPH) stable free radical. […] The percent interaction with DPPH and the IC50 values of compounds 7–9 on rat hepatic microsomal membrane lipid peroxidation, after 45 min of incubation is shown in Table 4.
Compounds (in absolute ethanol, final concentrations 25–200 μM) were added to an ethanolic solution of DPPH (final concentration 200 μM) at room temperature (22 ± 2 °C). Absorbance (517 nm) was recorded after 30 min.

[2] = system: carrageenan-induced rat paw oedema; test: Carrageenan-induced rat paw oedema; assay type: in vivo, Wistar rats; settings: 0.15 mmol/kg i.p., oedema after 3.5 h, vs carrageenan-only controls; for inhibition in vivo at 150 µmol/kg: Rattus norvegicus, ip, read-out: % Oedema Reduction
Method: The carrageenan-induced paw oedema is a well-known and widely used model of acute inflammation. The response to carrageenan inflammation may be divided into three phases. In the first phase (after 1.5 h), histamine and serotonin are released, the second phase (1.5–2.5 h after carrageenan administration) is mediated by kinins, whereas, in the third phase, more than two hours post administration, neutrophil infiltration, prostaglandin production and release of pro-inflammatory cytokines are involved. In this work, oedema was measured 3.5 h post injection.
κ-Carrageenan and lipoxygenase type I-B from soybean were purchased from Sigma (St. Louis, MO, U.S.A.).
The tested compounds (in water with a few drops of Tween 80) were given i.p. (0.15 mmol/kg) to rats, just after the i.d. injection of 0.1 mL of an aqueous carrageenan solution (1% w/v) in the hind paw of rats. The produced oedema, after 3.5 h, was estimated as paw weight increase.

[3] = system: rat hepatic microsomal membrane lipid peroxidation; test: Fe2+/ascorbate induced lipid peroxidation, TBA reactive material; assay type: biochemical; settings: for IC50: after 45 min of incubation, read-out: Inhibition of Lipid Peroxidation IC50
Method: as §1
The peroxidation of heat-inactivated (90°, 90 s) rat liver microsomal fraction was induced by ascorbic acid (0.2 mM) and ferrous sulphate (10 μΜ). The studied compounds, in dimethylsulfoxide, were added at concentrations 1 μM–1 mM. Aliquots were taken from the incubation mixture (37 °C) for 45 min. Lipid peroxidation was assessed spectrophotometrically (535/600 nm) as 2-thiobarbituric acid reactive material. All compounds and solvents were found not to interfere with the assay.

hyperlipidaemic rats = test: Triton WR1339 (tyloxapol) induced hyperlipidaemia in rats; assay type: in vivo, Wistar rats; settings: Rattus norvegicus, ip, 24 h, 150 μmol/kg i.p., tyloxapol 200 mg/kg i.p., plasma after 24 h
Text: The pleiotropic effects of statins, used as hypolipidaemic drugs, include antioxidant ability and direct increase of eNOS activity, in addition to inhibition of 3-hydroxy-3-methylglutaryl coenzyme A (HMG-CoA) reductase. […] The systemic administration of Triton-WR1339 (tyloxapol) to rats induces a biphasic elevation of plasma cholesterol, atherogenic VLDL cholesterol and LDL cholesterol, as well as triglyceride levels. […] Agents shown to be active in phase I are considered to interfere with cholesterol biosynthesis.
κ-Carrageenan and lipoxygenase type I-B from soybean were purchased from Sigma (St. Louis, MO, U.S.A.). For the in vivo experiments, Wistar rats (180–220 g, 3–4 months old) were kept in the Centre of the School of Veterinary Medicine (EL54 BIO42), Aristotelian University of Thessaloniki, which is registered by the official state veterinary authorities (presidential degree 56/2013, in harmonization with the European Directive 2010/63/EEC). The experimental protocols were approved by the Animal Ethics Committee of the Prefecture of Central Macedonia (no. 270079/2500).
Hyperlipidaemia was induced by the i.p. administration of Triton WR 1339 (200 mg/kg) to rats. […] Blood was taken from the aorta after 24 h, for the determination of plasma total cholesterol, LDL-cholesterol and triglyceride concentrations, using commercial kits.

[4] = In vitro nitrogen monoxide release (Griess reagent); settings: DMSO/water 7/3, overnight, cadmium
Method: Due to their poor aqueous solubility, compounds 1, 3-7 and 9 were dissolved in 7/3 (v/v) mixture of DMSO/water at various concentrations and incubated overnight at room temperature in the presence of cadmium. S-nitroso-N-acetylpenicillamine (SNAP) was dissolved either in DMSO/water 7/3 or in water and treated as above.
Aliquots were taken from each sample and added to an equal volume of N-naphthylaminoethylamine (0.2%) and sulfanilamide (2%) solution in 3 N hydrochloric acid (Griess reagent). Appropriate sodium nitrite solutions in the same DMSO/water mixture were used for the construction of the standard curve and values were identical to those obtained with aqueous solutions. Nitric oxide release was estimated spectrophotometrically (540 nm).

[5] = read-out: % Reduction LDL-C (LDL cholesterol)
[6] = read-out: % Reduction TC (total cholesterol)
[7] = read-out: % Reduction TG (triglycerides)

Row | Compound | IC50 (soybean lipoxygenase 1-B) [µM] | Percent Interaction with DPPH ([1]; compound 50 μΜ) [%] | Percent Interaction with DPPH ([1]; compound 100 μΜ) [%] | Percent Interaction with DPPH ([1]; compound 200 μΜ) [%] | melting point [°C] | inhibition in vivo at 150 µmol/kg [2] [%] | IC50 [3] [µM] | lag period in time course of lipid peroxidation ([3]; various concentrations, Figure 2) | inhibition in vivo at 150 µmol/kg (hyperlipidaemic rats; [5]) [%] | inhibition in vivo at 150 µmol/kg (hyperlipidaemic rats; [6]) [%] | inhibition in vivo at 150 µmol/kg (hyperlipidaemic rats; [7]) [%] | NO Release ([4]; compound 31.25 μM) [μΜ] | NO Release ([4]; compound 62.5 μM) [μΜ] | NO Release ([4]; compound 125 μM) [μΜ] | NO Release ([4]; compound 250 μM) [μΜ] | NO Release ([4]; compound 500 μM) [μΜ] | % Oedema Reduction [2]
1 | Cc1c(C)c2c(c(C)c1O)CCC(C)(C(=O)OCCO[N+](=O)[O-])O2 (racemic) [Compound 9, (±)-2-(Nitrooxy)ethyl 6-hydroxy-2,5,7,8-tetramethylchroman-2-carboxylate] | 120 | 55 | 90 | 92 | 95 to 97 | 57 | 2.3 | about 20 min | 65 | 55.4 | 30 | 3 | 10 | 23 | 49 | 93 | 
2 | COc1ccc2c(c1)c(CC(=O)OCCO[N+](=O)[O-])c(C)n2C(=O)c1ccc(Cl)cc1 [Compound 3, 2-(Nitrooxy)ethyl 2-(1-(4-chlorobenzoyl)-5-methoxy-2-methyl-1H-indol-3-yl)acetate] | 107 |  |  |  | 83 to 84 | 29 |  |  | 62.3 | 71.7 | 31.8 | 5 | 13 | 28 | 58 | 102 | 
3 | CC(C)(C)c1cc(/C=C/C(=O)OCCO[N+](=O)[O-])cc(C(C)(C)C)c1O [Compound 7, (E)-2-(Nitrooxy)ethyl 3-(3,5-di-tert-butyl-4-hydroxyphenyl)acrylate] | 44 | 21 | 49 | 87 | 80 | 55 | 41 |  | 60.6 | 66 | 45.7 | 2 | 6.5 | 17 | 38 | 77 | 55 ** %
4 | CC(C)(C)c1cc(/C=C/C(=O)OCCc2ccc([N+](=O)[O-])cc2)cc(C(C)(C)C)c1O [Compound 8, (E)-4-Nitrophenethyl 3-(3,5-di-tert-butyl-4-hydroxyphenyl)acrylate] | 10.5 | 23 | 57 | 88 | 156 to 157 | 51 | 150 |  |  |  |  |  |  |  |  |  | 51 ** %
